Results published in patent US10676468B2, “N-(3-heteroarylaryl)-4-arylarylcarboxamides and analogs as hedgehog pathway inhibitors and use thereof” (IMPACT Therapeutics, Inc., priority 2012, dated 2020).
Structures can show the parent of a compound that is named as a salt.

Key:
Format in all cases: cell-based, mouse
[1] = test system: Hedgehog Signaling Pathway; assay: SHH-induced differentiation of C3H10T1/2 cells into osteoblastic cells, intracellular alkaline phosphatase activity; conditions: 10 nM SHH-N, 5 days, alkaline phosphatase activity (OD405), read-out: IC50 values of compounds that inhibit Hh pathway
In short: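 Mouse C3H10T1/2 cells were induced with 10 nM SHH-N alongside test compound (10 μM–10 nM) for 5 days at 37 °C. Cells were lysed in 0.2% Triton, and alkaline phosphatase activity was read at OD405 over 30 min at 37 °C with the background reading subtracted. IC50 came from a nonlinear fit against log concentration.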

[2] = test system: Hedgehog Signaling Pathway; assay: SAG-induced differentiation of C3H10T1/2 cells into osteoblastic cells, intracellular alkaline phosphatase activity; conditions: 1 μM SAG, 5 days, alkaline phosphatase activity (OD405), read-out: IC50 values of compounds that inhibit Hh pathway
In short: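 Mouse C3H10T1/2 cells were induced with SAG and exposed to compound (10 μM to 1 nM) for 5 days at 37 °C. Cells were lysed in 0.2% Triton, and alkaline phosphatase activity was read as OD405 over 30 min at 37 °C in pH 9.8 substrate buffer. IC50 came from a non-linear fit of background-subtracted OD405 against log concentration.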

[3] = test system: Hedgehog Signaling Pathway; assay: Gli-Luc reporter gene cell assay in C3H10T1/2/Gli-Luc cells stimulated with Shh; conditions: 30 nM Shh, luciferase activity (RLU), read-out: IC50 values of compounds that inhibit Hh pathway
In short: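 C3H10T1/2 cells stably carrying Gli-responsive luciferase were seeded overnight, then treated 24 h at 37 °C with compound (7-point dilution series, DMSO control) plus Shh (30 nM in added medium). Lysate luciferase RLU fitted against log concentration to derive IC50.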

[4] = Mus musculus, C3H 10T1/2, 120 h

SMILES | IC50 [1, 4] [nM] | IC50 [2, 4] [nM] | IC50 ([3]; Mus musculus, C3H 10T1/2, 24 h) [nM] | IC50 ([1]; Dihydrochloride) [nM] | IC50 ([2]; Dihydrochloride) [nM] | IC50 ([3]; 24 hours, Dihydrochloride) [nM]
Cc1c(C(=O)Nc2ccc(Cl)c(-c3nc4ccccc4[nH]3)c2)ccc(N2C[C@@H](C)N(C)[C@@H](C)C2)c1F [Example 122, N-(3-(1H-benzo[d]imidazol-2-yl)-4-chlorophenyl)-2-methyl-3-fluoro-4-((3S,5R)-3,4,5-trimethylpiperazin-1-yl)benzamide] | 0.52 | 29 | 0.39 |  |  | 
C[C@@H]1CN(c2cc(Cl)c(C(=O)Nc3ccc(Cl)c(-c4nc5ccccc5[nH]4)c3)cc2F)C[C@H](C)N1C [Example 123, N-(3-(1H-benzo[d]imidazol-2-yl)-4-chlorophenyl)-2-chloro-5-fluoro-4-((3S,5R)-3,4,5-trimethylpiperazin-1-yl)benzamide] | 0.97 | 53 | 0.39 |  |  | 
CCN1[C@H](C)CN(c2ccc(C(=O)Nc3ccc(Cl)c(-c4nc5ccccc5[nH]4)c3)c(Cl)c2)C[C@@H]1C [Example 124, N-(3-(1H-benzo[d]imidazol-2-yl)-4-chlorophenyl)-2-chloro-4-((3S,5R)-4-ethyl-3,5-dimethylpiperazin-1-yl)benzamide] | 0.49 | 38 | 0.8 |  |  | 
CC(C)N1[C@H](C)CN(c2ccc(C(=O)Nc3ccc(Cl)c(-c4nc5ccccc5[nH]4)c3)c(Cl)c2)C[C@@H]1C [Example 125, N-(3-(1H-benzo[d]imidazol-2-yl)-4-chlorophenyl)-2-chloro-4-((3S,5R)-4-isopropyl-3,5-dimethylpiperazin-1-yl)benzamide] | 1.2 | 23 | 0.57 |  |  | 
C[C@H]1CN(c2ccc(C(=O)Nc3ccc(Cl)c(-c4nc5ccccc5[nH]4)c3)c(Cl)c2)CCN1C [Example 126, (S)—N-(3-(1H-benzo[d]imidazol-2-yl)-4-chlorophenyl)-2-chloro-4-(3,4-dimethylpiperazin-1-yl)benzamide] | 25 | 81 | 2.3 |  |  | 
C[C@@H]1CN(c2ccc(C(=O)Nc3cnc(Cl)c(-c4nc5ccccc5[nH]4)c3)c(Cl)c2)C[C@H](C)N1C [Example 127, N-(5-(1H-benzo[d]imidazol-2-yl)-6-chloropyridin-3-yl)-2-chloro-4-((3S,5R)-3,4,5-trimethylpiperazin-1-yl)benzamide] | 1.1 | 34 | 1.1 |  |  | 
C[C@@H]1CN(c2ccc(C(=O)Nc3cnc(Cl)c(-c4nc5ccccc5[nH]4)c3)c(Cl)c2)C[C@H](C)O1 [Example 128, N-(5-(1H-benzo[d]imidazol-2-yl)-6-chloropyridin-3-yl)-2-chloro-4-((2S,6R)-2,6-dimethylmorpholino)benzamide] | 5.3 | 60 | 5.2 |  |  | 
C[C@@H]1CN(c2ccc(C(=O)Nc3cnc(Cl)c(-c4nc5ccc(F)cc5[nH]4)c3)c(Cl)c2)C[C@H](C)N1C [Example 129, N-(5-(6-fluoro-1H-benzo[d]imidazol-2-yl)-6-chloropyridin-3-yl)-2-chloro-4-((3S,5R)-3,4,5-trimethylpiperazin-1-yl)benzamide] | 7.5 | 82 | 4 |  |  | 
C[C@@H]1CN(c2ccc(C(=O)Nc3cnc(Cl)c(-c4nc5ccc(Cl)cc5[nH]4)c3)c(Cl)c2)C[C@H](C)N1C [Example 130, N-(5-(6-chloro-1H-benzo[d]imidazol-2-yl)-6-chloropyridin-3-yl)-2-chloro-4-((3S,5R)-3,4,5-trimethylpiperazin-1-yl)benzamide] | 18 | 178 | 8.5 |  |  | 
C[C@@H]1CN(c2ccc(C(=O)Nc3ccc(Cl)c(-c4nc5ccccc5[nH]4)c3)c(Cl)c2)C[C@H](C)N1C [Example 132, N-(3-(1H-benzo[d]imidazol-2-yl)-4-chlorophenyl)-2-chloro-4-((3S,5R)-3,4,5-trimethylpiperazin-1-yl)benzamide Dihydrochloride] |  |  |  | 0.53 | 28 | 0.74
C[C@@H]1CN(c2ccc(C(=O)Nc3ccc(Cl)c(-c4nc5ccccc5[nH]4)c3)cc2Cl)C[C@H](C)N1C [Example 133, N-(3-(1H-benzo[d]imidazol-2-yl)-4-chlorophenyl)-3-chloro-4-((3S,5R)-3,4,5-trimethylpiperazin-1-yl)benzamide Dihydrochloride] |  |  |  | 6.3 | 54 | 1.6
Cc1csc(-c2cnc(-c3cc(NC(=O)c4ccc(N5C[C@@H](C)N(C)[C@@H](C)C5)cc4C)ccc3Cl)[nH]2)c1 [Example 135, N-(3-(5-(4-methylthiophen-2-yl)-1H-imidazol-2-yl)-4-chlorophenyl)-2-methyl-4-((3S,5R)-3,4,5-trimethylpiperazin-1-yl)benzamide] | 1.5 | 67 | 1.2 |  |  | 

Next, values leading:

IC50 [1, 4] [nM] | IC50 [2, 4] [nM] | IC50 ([3]; Mus musculus, C3H 10T1/2, 24 h) [nM] | IC50 ([1]; Dihydrochloride) [nM] | IC50 ([2]; Dihydrochloride) [nM] | IC50 ([3]; 24 hours, Dihydrochloride) [nM] | SMILES
4 | 9.2 | 0.97 |  |  |  | Cc1csc(-c2cnc(-c3cc(NC(=O)c4ccc(N5C[C@@H](C)N(C)[C@@H](C)C5)cc4Cl)ccc3Cl)[nH]2)c1 [Example 136, N-(3-(5-(4-methylthiophen-2-yl)-1H-imidazol-2-yl)-4-chlorophenyl)-2-chloro-4-((3S,5R)-3,4,5-trimethylpiperazin-1-yl)benzamide]
15 | 51 | 2.3 |  |  |  | C[C@@H]1CN(c2ccc(C(=O)Nc3ccc(Cl)c(-c4ncc(-c5ccc(Cl)s5)[nH]4)c3)cc2Cl)C[C@H](C)N1C [Example 137, N-(3-(5-(5-chlorothiophen-2-yl)-1H-imidazol-2-yl)-4-chlorophenyl)-3-chloro-4-((3S,5R)-3,4,5-trimethylpiperazin-1-yl)benzamide]
1.6 | 39 | 0.58 |  |  |  | C[C@@H]1CN(c2ccc(C(=O)Nc3ccc(Cl)c(-c4ncc(-c5ccc(Cl)s5)[nH]4)c3)c(Cl)c2)C[C@H](C)N1C [Example 138, N-(3-(5-(5-chlorothiophen-2-yl)-1H-imidazol-2-yl)-4-chlorophenyl)-2-chloro-4-((3S,5R)-3,4,5-trimethylpiperazin-1-yl)benzamide]
1.8 | 44 | 1.1 |  |  |  | Cc1cc(N2C[C@@H](C)N(C)[C@@H](C)C2)ccc1C(=O)Nc1ccc(Cl)c(-c2ncc(-c3ccsc3)[nH]2)c1 [Example 139, N-(3-(5-(thiophen-3-yl)-1H-imidazol-2-yl)-4-chlorophenyl)-2-methyl-4-((3S,5R)-3,4,5-trimethylpiperazin-1-yl)benzamide]
0.2 | 4.8 | 0.21 |  |  |  | C[C@@H]1CN(c2ccc(C(=O)Nc3ccc(Cl)c(-c4ncc(-c5ccsc5)[nH]4)c3)c(Cl)c2)C[C@H](C)N1C [Example 140, N-(3-(5-(thiophen-3-yl)-1H-imidazol-2-yl)-4-chlorophenyl)-2-chloro-4-((3S,5R)-3,4,5-trimethylpiperazin-1-yl)benzamide]
0.24 | 9.4 | 0.35 |  |  |  | Cc1c(C(=O)Nc2ccc(Cl)c(-c3ncc(-c4ccsc4)[nH]3)c2)ccc(N2C[C@@H](C)N(C)[C@@H](C)C2)c1F [Example 141, N-(3-(5-(thiophen-3-yl)-1H-imidazol-2-yl)-4-chlorophenyl)-2-methyl-3-fluoro-4-((3S,5R)-3,4,5-trimethylpiperazin-1-yl)benzamide]
15 | 108 | 2.3 |  |  |  | Cc1cc(N2C[C@@H](C)N(C)[C@@H](C)C2)ccc1C(=O)Nc1ccc(Cl)c(-c2nc(C)c(-c3cccs3)[nH]2)c1 [Example 143, N-(3-(4-methyl-5-(thiophen-2-yl)-1H-imidazol-2-yl)-4-chlorophenyl)-2-methyl-4-((3S,5R)-3,4,5-trimethylpiperazin-1-yl)benzamide]
0.82 | 17 | 0.15 |  |  |  | C[C@@H]1CN(c2ccc(C(=O)Nc3ccc(Cl)c(-c4ncc(-c5ccco5)[nH]4)c3)c(Cl)c2)C[C@H](C)N1C [Example 144, N-(3-(5-(furan-2-yl)-1H-imidazol-2-yl)-4-chlorophenyl)-2-chloro-4-((3S,5R)-3,4,5-trimethylpiperazin-1-yl)benzamide]
0.93 | 3.3 | 0.38 |  |  |  | Cc1cc(N2C[C@@H](C)N(C)[C@@H](C)C2)ccc1C(=O)Nc1ccc(Cl)c(-c2ncc(-c3ccco3)[nH]2)c1 [Example 145, N-(3-(5-(furan-2-yl)-1H-imidazol-2-yl)-4-chlorophenyl)-2-methyl-4-((3S,5R)-3,4,5-trimethylpiperazin-1-yl)benzamide]
0.49 | 25 | 0.39 |  |  |  | C[C@@H]1CN(c2ccc(C(=O)Nc3ccc(Cl)c(-c4ncc(-c5ccco5)[nH]4)c3)c(C(F)(F)F)c2)C[C@H](C)N1C [Example 146, N-(3-(5-(furan-2-yl)-1H-imidazol-2-yl)-4-chlorophenyl)-2-(trifluoro-methyl)-4-((3S,5R)-3,4,5-trimethylpiperazin-1-yl)benzamide]
